Measurements taken from PMC11513923, “Discovery of ZLC491 as a Potent, Selective, and Orally Bioavailable CDK12/13 PROTAC Degrader” (Journal of Medicinal Chemistry, 2024).

Legend:
[1] = molecular target: CDK12 (Homo sapiens, UniProt Q9NYV4); assay: CDK12 degradation in MDA-MB-231 cells by immunoblotting; type: cell-based; set-up: Immunoblotting of CDK12 and CDK13 in MDA-MB-231 cells treated with increasing concentrations of ZLC491 for 15 h; endogenous in cells; host or cells: MDA-MB-231; conditions: 0.3 μM; for Protein Degradation (%DMSO control, 0.3 μM) CDK12: MDA-MB-231 cells, 15 h, immunoblotting, normalized against α-tubulin; for Degradation rates of CDK12 at 0.3 μM: supplementary CSV
Protocol: (§1) The degradation efficiency of the new molecules was assessed by immunoblotting after treatment with the compounds at 0.3 μM in MD-MBA-231 cells for 15 h.
(§2) To further characterize the compound, we determined the half-degradation concentration (DC50) values of ZLC491 in MDA-MB-231 cells. […] We also treated MDA-MB-231 cells with 1 μM ZLC491 at various time points.
(§3) (A) Immunoblotting of CDK12 and CDK13 in MDA-MB-231 cells treated with increasing concentrations of ZLC491 for 15 h (left). Percent remaining CDK12 and CDK13 proteins were plotted for DC50 determination (right). Protein levels were quantified using ImageJ and normalized to corresponding α-tubulin, then plotted using Graphpad Prism 8.0. The data were representative of three independent experiments; (B) immunoblotting of CDK12 and CDK13 proteins in MDA-MB-231 cells treated with ZLC491 for various time points; immunoblotting of CDK12 and CDK13 in HCC38 (C) and MDA-MB-436 (D) cells treated with increasing concentrations of ZLC491 for 15 h. α-Tubulin was used as a loading control. TEXT PRINTED IN THE PICTURE: (A) ZLC491: MDA-MB-231: CDK12 DC50 = 0.032μM; MDA-MB-231: CDK13 DC50 = 0.028μM DOUBTS OF THE COPYIST ABOUT THIS PICTURE: ZLC491, CDK12 DC50: 0.032 read from small print, the digits 3 and 2 are uncertain / ZLC491, CDK13 DC50: 0.028 read from small print, the last digit may be 8, 6 or 3
(§4) Generally, the tested cells were washed by ice-cold PBS buffer (Gibco) and lysed with an SDS lysis buffer (62.5 mM Tris, 2% w/v SDS, 10 glycerol, 50 mM DTT, 0.01% w/v bromophenol blue) on ice, after which the protein lysate samples were collected to 1.5 mL microcentrifuge tubes and treated with ultrasonic for 10 s, following with a 100 °C incubation for 10 min and a 4 °C centrifugation of 12000 rpm for 10 min. An equal amount of protein was loaded to 4–8% Bis-Tris gels and underwent an SDS-PAGE electrophoresis at 55V for 30 min and 95V for 90 min. Proteins on gels were then transferred to a polyvinylidene difluoride (PVDF) membrane (Bio-Rad) with a wet electro transfer system (Bio-Rad). The PVDF membrane was cut into bands and incubated in a blocking reagent (5% defatted milk powder dissolved in TBST) at room temperature for 1–2 h. Incubate membrane and primary antibody (at the appropriate dilution and diluent as recommended in the product webpage) at 4 °C for 12–14 h, followed with three times washes by TBST. The washed membranes were incubated in a secondary antibody solution (HRP-linked antirabbit IgG or antimouse IgG (CST), 1:2000 diluted into TBST) at room temperature for 2 h. Membranes were photographed in Amersham Imager 800 system using StarSignal plus regent (GenStar) or Omni-ECL reagent (EpiZyme). Compounds MG132, MLN4924, Bafilomycin A1 and pomalidomide were purchased from MedChemExpress (MCE) LLC.

[2] = molecular target: T1, CDK13 (Homo sapiens, UniProt Q14004); assay: CDK13 degradation in MDA-MB-231 cells by immunoblotting; type: cell-based; conditions: 0.3 μM; for Protein Degradation (%DMSO control, 0.3 μM) CDK13: MDA-MB-231 cells, 15 h, immunoblotting, normalized against α-tubulin; for Degradation rates of CDK13 at 0.3 μM: supplementary CSV;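 for Protein Degradation (%DMSO control, 0.3 μM) CDK13: percent of CDK13 protein degraded relative to DMSO control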
T1 construct: Immunoblotting of CDK12 and CDK13 in MDA-MB-231 cells treated with increasing concentrations of ZLC491 for 15 h; endogenous in cells; host or cells: MDA-MB-231
Protocol: as §1, §2, §3, §4

T1 sequence (Q14004 whole entry): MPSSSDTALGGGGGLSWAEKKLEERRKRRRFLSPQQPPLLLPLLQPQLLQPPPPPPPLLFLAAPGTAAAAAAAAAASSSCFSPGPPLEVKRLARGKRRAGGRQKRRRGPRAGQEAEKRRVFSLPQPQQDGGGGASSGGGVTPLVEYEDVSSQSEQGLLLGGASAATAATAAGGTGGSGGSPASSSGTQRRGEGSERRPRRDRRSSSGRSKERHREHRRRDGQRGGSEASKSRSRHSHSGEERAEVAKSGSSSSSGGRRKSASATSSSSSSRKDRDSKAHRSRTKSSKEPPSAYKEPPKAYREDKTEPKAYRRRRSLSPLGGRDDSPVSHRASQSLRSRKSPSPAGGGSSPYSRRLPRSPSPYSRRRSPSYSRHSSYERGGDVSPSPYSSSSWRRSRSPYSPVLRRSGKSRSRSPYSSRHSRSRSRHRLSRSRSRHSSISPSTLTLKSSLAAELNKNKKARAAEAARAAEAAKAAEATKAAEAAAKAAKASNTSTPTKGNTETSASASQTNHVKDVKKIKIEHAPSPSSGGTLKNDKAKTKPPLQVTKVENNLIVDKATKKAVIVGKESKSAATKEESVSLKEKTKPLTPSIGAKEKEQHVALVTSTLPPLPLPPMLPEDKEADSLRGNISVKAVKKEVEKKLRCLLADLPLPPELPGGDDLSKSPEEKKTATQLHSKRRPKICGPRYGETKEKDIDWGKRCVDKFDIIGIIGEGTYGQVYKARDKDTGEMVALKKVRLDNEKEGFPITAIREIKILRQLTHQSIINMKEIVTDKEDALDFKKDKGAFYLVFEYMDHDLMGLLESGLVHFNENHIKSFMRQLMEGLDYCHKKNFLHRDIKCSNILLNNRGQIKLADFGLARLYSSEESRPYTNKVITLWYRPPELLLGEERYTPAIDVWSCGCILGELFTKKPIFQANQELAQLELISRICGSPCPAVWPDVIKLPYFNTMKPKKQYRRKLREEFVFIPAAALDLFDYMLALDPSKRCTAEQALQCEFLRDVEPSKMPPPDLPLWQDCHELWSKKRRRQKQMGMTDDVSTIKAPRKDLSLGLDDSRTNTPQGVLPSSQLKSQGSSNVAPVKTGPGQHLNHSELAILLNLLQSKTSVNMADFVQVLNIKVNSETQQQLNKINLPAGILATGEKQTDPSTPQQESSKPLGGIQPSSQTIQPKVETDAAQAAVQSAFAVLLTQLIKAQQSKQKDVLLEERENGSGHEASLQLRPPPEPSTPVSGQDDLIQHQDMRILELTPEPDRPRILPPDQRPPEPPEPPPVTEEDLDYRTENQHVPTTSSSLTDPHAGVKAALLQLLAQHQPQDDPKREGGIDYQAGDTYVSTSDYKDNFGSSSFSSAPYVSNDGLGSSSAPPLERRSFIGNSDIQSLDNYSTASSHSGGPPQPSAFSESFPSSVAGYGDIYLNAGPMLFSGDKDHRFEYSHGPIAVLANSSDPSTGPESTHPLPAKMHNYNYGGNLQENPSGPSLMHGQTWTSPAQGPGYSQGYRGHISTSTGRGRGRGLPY
T1 sequence (O75909 whole entry partner): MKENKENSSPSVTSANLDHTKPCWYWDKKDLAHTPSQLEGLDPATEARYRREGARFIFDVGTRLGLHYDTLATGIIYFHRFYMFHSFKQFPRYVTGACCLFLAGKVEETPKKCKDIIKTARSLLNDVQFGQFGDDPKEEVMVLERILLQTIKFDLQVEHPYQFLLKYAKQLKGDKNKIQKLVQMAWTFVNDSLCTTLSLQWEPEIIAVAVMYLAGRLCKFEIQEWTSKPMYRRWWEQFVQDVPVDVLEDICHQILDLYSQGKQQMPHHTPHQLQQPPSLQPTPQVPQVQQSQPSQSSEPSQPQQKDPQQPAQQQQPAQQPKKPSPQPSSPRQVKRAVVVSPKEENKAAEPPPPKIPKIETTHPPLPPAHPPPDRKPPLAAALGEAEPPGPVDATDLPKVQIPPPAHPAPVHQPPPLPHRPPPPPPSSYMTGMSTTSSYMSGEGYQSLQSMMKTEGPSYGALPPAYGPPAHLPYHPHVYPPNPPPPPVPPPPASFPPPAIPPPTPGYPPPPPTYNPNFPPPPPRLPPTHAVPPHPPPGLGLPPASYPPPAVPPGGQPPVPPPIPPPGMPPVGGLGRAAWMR
Sequence of CDK12 (Q9NYV4 whole entry): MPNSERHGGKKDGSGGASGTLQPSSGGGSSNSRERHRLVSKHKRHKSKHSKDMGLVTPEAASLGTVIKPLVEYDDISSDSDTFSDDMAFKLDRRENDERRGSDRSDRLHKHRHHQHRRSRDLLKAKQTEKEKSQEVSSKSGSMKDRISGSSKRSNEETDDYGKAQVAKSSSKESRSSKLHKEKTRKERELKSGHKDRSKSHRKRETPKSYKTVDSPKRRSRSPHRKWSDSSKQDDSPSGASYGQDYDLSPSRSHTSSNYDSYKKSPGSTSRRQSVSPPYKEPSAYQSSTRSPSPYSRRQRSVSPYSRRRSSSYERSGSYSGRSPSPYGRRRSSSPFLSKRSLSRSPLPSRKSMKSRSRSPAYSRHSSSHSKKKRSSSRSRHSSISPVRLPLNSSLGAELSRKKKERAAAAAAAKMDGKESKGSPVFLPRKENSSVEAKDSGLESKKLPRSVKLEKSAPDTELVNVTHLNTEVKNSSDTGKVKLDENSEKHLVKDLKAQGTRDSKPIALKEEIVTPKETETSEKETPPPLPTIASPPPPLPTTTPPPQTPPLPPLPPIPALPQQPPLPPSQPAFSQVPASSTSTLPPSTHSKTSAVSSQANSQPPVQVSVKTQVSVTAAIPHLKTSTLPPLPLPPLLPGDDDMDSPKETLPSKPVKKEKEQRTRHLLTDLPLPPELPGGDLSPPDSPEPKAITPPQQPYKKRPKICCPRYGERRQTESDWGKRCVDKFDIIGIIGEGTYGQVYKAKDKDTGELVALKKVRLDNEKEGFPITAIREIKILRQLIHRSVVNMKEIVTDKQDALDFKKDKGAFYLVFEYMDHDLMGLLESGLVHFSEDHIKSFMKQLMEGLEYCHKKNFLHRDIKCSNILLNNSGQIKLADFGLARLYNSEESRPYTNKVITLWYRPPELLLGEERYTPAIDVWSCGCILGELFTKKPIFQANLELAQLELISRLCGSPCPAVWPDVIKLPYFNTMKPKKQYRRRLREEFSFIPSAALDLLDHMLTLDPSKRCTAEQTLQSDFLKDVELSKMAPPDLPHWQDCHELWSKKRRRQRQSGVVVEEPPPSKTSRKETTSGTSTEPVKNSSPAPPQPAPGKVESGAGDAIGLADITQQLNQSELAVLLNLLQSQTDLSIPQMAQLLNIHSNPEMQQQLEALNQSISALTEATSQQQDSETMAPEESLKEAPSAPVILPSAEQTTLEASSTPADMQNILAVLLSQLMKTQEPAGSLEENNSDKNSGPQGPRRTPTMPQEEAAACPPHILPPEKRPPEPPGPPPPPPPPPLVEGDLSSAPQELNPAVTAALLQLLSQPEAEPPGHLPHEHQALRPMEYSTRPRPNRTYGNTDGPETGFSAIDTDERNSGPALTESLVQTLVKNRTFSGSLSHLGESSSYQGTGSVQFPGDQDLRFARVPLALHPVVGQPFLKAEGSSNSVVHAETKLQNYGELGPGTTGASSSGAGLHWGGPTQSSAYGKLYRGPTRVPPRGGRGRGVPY
Sequence of CDK12 (O75909 whole entry partner): as the sequence (O75909 whole entry partner) above

SMILES | Protein Degradation (%DMSO control, 0.3 μM) CDK12 [1] | Degradation rates of CDK12 at 0.3 μM [1] | Protein Degradation (%DMSO control, 0.3 μM) CDK13 [2] | Degradation rates of CDK13 at 0.3 μM [2]
N#Cc1ccc(N[C@H]2CC[C@H](N(C(=O)NCc3ccccc3)c3ccc(N4CCN(CC5CCN(c6ccc7c(c6)C(=O)N(C6CCC(=O)NC6=O)C7=O)CC5)CC4)cc3)CC2)nc1 (stereo partly shown) [4g, 3-Benzyl-1-((1r,4r)-4-((5-cyanopyridin-2-yl)amino)cyclohexyl)-1-(4-(4-((1-(2-(2,6-dioxopiperidin-3-yl)-1,3-dioxoisoindolin-5-yl)piperidin-4-yl)methyl)piperazin-1-yl)phenyl)urea] | 74% | 74% | 84% | 84%
N#Cc1ccc(N[C@H]2CC[C@H](N(C(=O)NCc3ccccc3)c3ccc(N4CCN(CC5CCN(c6cc7c(cc6F)C(=O)N(C6CCC(=O)NC6=O)C7=O)CC5)CC4)cc3)CC2)nc1 (stereo partly shown) [4g-F, 3-Benzyl-1-((1r,4r)-4-((5-cyanopyridin-2-yl)amino)cyclohexyl)-1-(4-(4-((1-(2-(2,6-dioxopiperidin-3-yl)-6-fluoro-1,3-dioxoisoindolin-5-yl)piperidin-4-yl)methyl)piperazin-1-yl)phenyl)urea] | 53% | 53% | 57% | 57%
N#Cc1ccc(N[C@H]2CC[C@H](N(C(=O)NCc3ccccc3)c3ccc(N4CCC(CN5CCN(c6ccc7c(c6)C(=O)N(C6CCC(=O)NC6=O)C7=O)CC5)C4)cc3)CC2)nc1 (stereo partly shown) [4i, 3-Benzyl-1-((1r,4r)-4-((5-cyanopyridin-2-yl)amino)cyclohexyl)-1-(4-(3-((4-(2-(2,6-dioxopiperidin-3-yl)-1,3-dioxoisoindolin-5-yl)piperazin-1-yl)methyl)pyrrolidin-1-yl)phenyl)urea] | 28% | 28% | 16% | 16%
N#Cc1ccc(N[C@H]2CC[C@H](N(C(=O)NCc3ccccc3)c3ccc(N4CCN(C5CN(c6ccc7c(c6)C(=O)N(C6CCC(=O)NC6=O)C7=O)C5)CC4)cc3)CC2)nc1 (stereo partly shown) [4k, 3-Benzyl-1-((1r,4r)-4-((5-cyanopyridin-2-yl)amino)cyclohexyl)-1-(4-(4-(1-(2-(2,6-dioxopiperidin-3-yl)-1,3-dioxoisoindolin-5-yl)azetidin-3-yl)piperazin-1-yl)phenyl)urea] | 62% | 62% | 76% | 76%
N#Cc1ccc(N[C@H]2CC[C@H](N(C(=O)NCc3ccccc3)c3ccc(N4CCN(C5CCN(c6ccc7c(c6)C(=O)N(C6CCC(=O)NC6=O)C7=O)C5)CC4)cc3)CC2)nc1 (stereo partly shown) [4l, 3-Benzyl-1-((1r,4r)-4-((5-cyanopyridin-2-yl)amino)cyclohexyl)-1-(4-(4-(1-(2-(2,6-dioxopiperidin-3-yl)-1,3-dioxoisoindolin-5-yl)pyrrolidin-3-yl)piperazin-1-yl)phenyl)urea] | 17% | 17% | 40% | 40%

More lines, now with the values ahead:

Protein Degradation (%DMSO control, 0.3 μM) CDK12 [1] | Degradation rates of CDK12 at 0.3 μM [1] | Protein Degradation (%DMSO control, 0.3 μM) CDK13 [2] | Degradation rates of CDK13 at 0.3 μM [2] | SMILES
37% | 37% | 61% | 61% | N#Cc1ccc(N[C@H]2CC[C@H](N(C(=O)NCc3ccccc3)c3ccc(N4CC(CN5CCN(c6ccc7c(c6)C(=O)N(C6CCC(=O)NC6=O)C7=O)CC5)C4)cc3)CC2)nc1 (stereo partly shown) [4h, 3-Benzyl-1-((1r,4r)-4-((5-cyanopyridin-2-yl)amino)cyclohexyl)-1-(4-(3-((4-(2-(2,6-dioxopiperidin-3-yl)-1,3-dioxoisoindolin-5-yl)piperazin-1-yl)methyl)azetidin-1-yl)phenyl)urea]
49% | 49% | 71% | 71% | N#Cc1ccc(N[C@H]2CC[C@H](N(C(=O)NCc3ccccc3)c3ccc(N4CCC(CN5CCN(c6ccc7c(c6)C(=O)N(C6CCC(=O)NC6=O)C7=O)CC5)CC4)cc3)CC2)nc1 (stereo partly shown) [4j, 3-Benzyl-1-((1r,4r)-4-((5-cyanopyridin-2-yl)amino)cyclohexyl)-1-(4-(4-((4-(2-(2,6-dioxopiperidin-3-yl)-1,3-dioxoisoindolin-5-yl)piperazin-1-yl)methyl)piperidin-1-yl)phenyl)urea]
63% | 63% | 85% | 85% | N#Cc1ccc(N[C@H]2CC[C@H](N(C(=O)NCc3ccccc3)c3ccc(N4CCC5(CC4)CN(c4ccc6c(c4)C(=O)N(C4CCC(=O)NC4=O)C6=O)C5)cc3)CC2)nc1 (stereo partly shown) [4n, 3-Benzyl-1-((1r,4r)-4-((5-cyanopyridin-2-yl)amino)cyclohexyl)-1-(4-(2-(2-(2,6-dioxopiperidin-3-yl)-1,3-dioxoisoindolin-5-yl)-2,7-diazaspiro[3.5]nonan-7-yl)phenyl)urea]
27% | 27% | 47% | 47% | N#Cc1ccc(N[C@H]2CC[C@H](N(C(=O)NCc3ccccc3)c3ccc(N4CCC5(CC4)CCN(c4ccc6c(c4)C(=O)N(C4CCC(=O)NC4=O)C6=O)C5)cc3)CC2)nc1 (stereo partly shown) [4o, 3-Benzyl-1-((1r,4r)-4-((5-cyanopyridin-2-yl)amino)cyclohexyl)-1-(4-(2-(2-(2,6-dioxopiperidin-3-yl)-1,3-dioxoisoindolin-5-yl)-2,8-diazaspiro[4.5]decan-8-yl)phenyl)urea]
42% | 42% | 66% | 66% | N#Cc1ccc(N[C@H]2CC[C@H](N(C(=O)NCc3ccccc3)c3ccc(N4CCC5(CC4)CCN(c4ccc6c(c4)C(=O)N(C4CCC(=O)NC4=O)C6=O)CC5)cc3)CC2)nc1 (stereo partly shown) [4p, 3-Benzyl-1-((1r,4r)-4-((5-cyanopyridin-2-yl)amino)cyclohexyl)-1-(4-(9-(2-(2,6-dioxopiperidin-3-yl)-1,3-dioxoisoindolin-5-yl)-3,9-diazaspiro[5.5]undecan-3-yl)phenyl)urea]
